According to ChEMBL document CHEMBL1131418, “Antiviral oligo- and polyribonucleotides containing selected triazolo[2,3-a]purines” (J Med Chem, 1998):

Legend:
[1] = Therapeutic index for anti-HIV activity against HIV-IIIB in CEM-SS cells; type: cell-based
MRC5 [2] = assay: Cytotoxic dose for anti-HCMV activity against AD-169 strain in MRC-5 cells; type: functional; settings: Homo sapiens, read-out: CD50 (the source's name)
MRC5 [3] = assay: Inhibitory concentration for anti-HCMV activity against AD-169 strain in MRC-5 cells; type: functional, cell-based; settings: Homo sapiens
[4] = Therapeutic index for anti-HCMV activity against AD-169 strain in MRC-5 cells; type: cell-based; settings: human, mrc5

SMILES	TI [1]	CC50 (MRC5 [2]) [µM]	IC50 (MRC5 [3]) [µM]	TI [4]
CCN(CC)C(=S)[S][Na] [DITIOCARB SODIUM]	> 67	–	–	–
Nc1nc(O)c2ncn(COC(CO)CO)c2n1 [GANCICLOVIR]	–	> 125	6.3	> 20
